Results taken from the supplement of paper PMC10307832.

Legend:
Assay in all cases: relative viability (nuclei count vs DMSO), 5 days (fraction); higher = more cells survive
[1] = compound: C1CCC(CC1)N(CCNCCC2=C3C(=C(C=C2)O)NC(=O)CO3)C(=O)CCNCCC4=CC(=C(C=C4)Cl)Cl [AZ505] + Nc1nc2[nH]cc(CCc3ccc(C(=O)N[C@@H](CCC(=O)O)C(=O)O)cc3)c2c(=O)[nH]1 [Pemetrexed] (partner 0.2 µM)
Procedure, shortened: (§1)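 Lung cancer cell lines, seeded in 1536-well plates, were treated the following day by pin tool with a single drug or with five library-drug doses (not always all listed) in √10 steps on top of a fixed anchor-drug dose. Cells were fixed and nuclei stained in one step after 5 days, and nuclei were counted. Relative viability is the nuclei count for treated wells divided by that for vehicle wells, reported as medians of duplicate plates.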

[2] = compound: C1CCC(CC1)N(CCNCCC2=C3C(=C(C=C2)O)NC(=O)CO3)C(=O)CCNCCC4=CC(=C(C=C4)Cl)Cl [AZ505] + CC(C)C[C@H](NC(=O)[C@H](Cc1ccccc1)NC(=O)c1cnccn1)B(O)O [Bortezomib] (partner 0.002 µM)
Procedure, shortened: as §1

[3] = compound: C1CCC(CC1)N(CCNCCC2=C3C(=C(C=C2)O)NC(=O)CO3)C(=O)CCNCCC4=CC(=C(C=C4)Cl)Cl [AZ505] + CC1(C)CCC(c2ccc(Cl)cc2)=C(CN2CCN(c3ccc(C(=O)NS(=O)(=O)c4ccc(N[C@H](CCN5CCOCC5)CSc5ccccc5)c(S(=O)(=O)C(F)(F)F)c4)cc3)CC2)C1 [Navitoclax] (partner 0.5 µM)
Procedure, shortened: as §1

[4] = compound: Cn1c(=O)n(-c2ccc(C(C)(C)C#N)cc2)c2c3cc(-c4cnc5ccccc5c4)ccc3ncc21 [Dactolisib] + N=C(N)NC(=N)NCCc1ccccc1 [Phenformin] (partner 250 µM)
Procedure, shortened: as §1

Cell Line | relative viability ([1]; first compound 0.08 µM) | relative viability ([1]; first compound 0.253 µM) | relative viability ([1]; first compound 0.8 µM) | relative viability ([1]; first compound 2.53 µM) | relative viability ([1]; first compound 8 µM) | relative viability ([2]; first compound 0.08 µM) | relative viability ([2]; first compound 0.253 µM) | relative viability ([2]; first compound 0.8 µM) | relative viability ([2]; first compound 2.53 µM) | relative viability ([2]; first compound 8 µM) | relative viability ([3]; first compound 0.08 µM) | relative viability ([3]; first compound 0.253 µM) | relative viability ([3]; first compound 0.8 µM) | relative viability ([3]; first compound 2.53 µM) | relative viability ([3]; first compound 8 µM) | relative viability ([4]; first compound 0.002 µM) | relative viability ([4]; first compound 0.006325 µM) | relative viability ([4]; first compound 0.02 µM) | relative viability ([4]; first compound 0.06325 µM) | relative viability ([4]; first compound 0.2 µM)
HOP-62 | 0.325 | 0.443 | 0.327 | 0.393 | 0.379 | 0.911 | 0.82 | 1.01 | 0.839 | 0.945 | 0.946 | 1.1 | 0.972 | 1.03 | 0.992 | 0.736 | 0.654 | 0.655 | 0.405 | 0.356
LC-2-ad | 0.279 | 0.278 | 0.294 | 0.306 | 0.258 | 1 | 1.04 | 0.915 | 1.01 | 1.03 | 0.285 | 0.594 | 0.528 | 0.491 | 0.54 | 0.601 | 0.572 | 0.539 | 0.42 | 0.391
LCLC-97TM1 | 0.161 | 0.253 | 0.193 | – | 0.175 | 0.579 | 0.461 | 0.461 | – | 1.08 | 0.446 | 0.521 | 0.902 | 0.735 | 0.694 | 0.452 | 0.444 | 0.42 | 0.317 | 0.179
LOU-NH91 | 0.327 | 0.338 | 0.324 | 0.382 | 0.349 | 0.46 | 0.508 | 0.536 | 0.527 | 0.453 | 0.612 | 0.694 | 0.657 | 0.657 | 0.804 | 0.625 | 0.731 | 0.642 | 0.437 | 0.447
LU99A | 0.199 | 0.22 | 0.19 | – | 0.199 | 1.02 | 1.08 | 1.05 | 1.18 | 1.18 | 0.745 | 0.814 | 0.839 | 0.894 | 0.749 | 0.871 | 0.761 | 0.682 | 0.443 | 0.258
LXF-289 | 0.84 | 0.92 | 0.785 | 0.932 | 0.903 | 0.875 | – | 1.02 | 0.975 | 1.02 | 0.891 | – | 0.919 | 0.881 | 0.935 | 0.571 | 0.499 | 0.534 | 0.518 | 0.439
NCI-H23 | 0.638 | 0.506 | 0.604 | 0.73 | 0.668 | 0.674 | – | 1.21 | 0.956 | 1.07 | 0.71 | – | 0.849 | 0.819 | 0.694 | 0.807 | 0.795 | 0.736 | 0.359 | 0.316
NCI-H322M | 0.604 | – | 0.61 | 0.647 | 0.648 | 1.29 | 1.15 | 1.39 | 1.22 | 1.34 | 1.18 | 1.1 | 1.16 | 1.1 | 1.28 | 0.822 | 0.745 | 0.713 | 0.617 | 0.485
